Laboratory results published in ChEMBL document CHEMBL1201862, “PubChem BioAssay data set” (2004).
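Briefly, cells in 96-well plates were exposed to five compound concentrations for 48 h, and endpoints were estimated by linear interpolation. The concentration for 50% growth inhibition is given as GI50.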 Active and inactive are the calls of the source. Rule as the data show it: active = GI50 up to about 1.1 µM and inactive = higher.

Tests used:
Test in all cases: NCI tumour cell line growth inhibition, 48 h
CCRF-CEM = tested on: CCRF-CEM
COLO 205 = tested on: COLO 205
MOLT-4 = tested on: MOLT-4
NCI/ADR-RES = tested on: NCI/ADR-RES
ACHN = tested on: ACHN
786-0 = tested on: 786-0
SR = tested on: SR
PC-3 = tested on: PC-3
HCC 2998 = tested on: HCC 2998
T47D = tested on: T47D
BT-549 = tested on: BT-549
KM12 = tested on: KM12
RXF 393 = tested on: RXF 393
HL-60 = tested on: HL-60
HCT-15 = tested on: HCT-15
NCI-H23 = tested on: NCI-H23
SF-268 = tested on: SF-268
SK-OV-3 = tested on: SK-OV-3
HT-29 = tested on: HT-29

| SMILES | GI50 (CCRF-CEM) | GI50 (COLO 205) | GI50 (MOLT-4) | GI50 (NCI/ADR-RES) | GI50 (ACHN) | GI50 (786-0) | GI50 (SR) | GI50 (PC-3) | GI50 (HCC 2998) | GI50 (T47D) | GI50 (BT-549) | GI50 (KM12) | GI50 (RXF 393) | GI50 (HL-60) | GI50 (HCT-15) | GI50 (NCI-H23) | GI50 (SF-268) | GI50 (SK-OV-3) | GI50 (HT-29) |
| --- | --- | --- | --- | --- | --- | --- | --- | --- | --- | --- | --- | --- | --- | --- | --- | --- | --- | --- | --- |
| C=C(C(=O)OC1C(CO)OC(OCC2CC[C@@H]3C[C@]4(OC(=O)C3=C)C(C)=CC(=O)C24)C(O)C1O)[C@@H]1CCC(CO)C2C(=O)C=C(C)[C@@]2(O)C1 (some centres not stated) | 0.269 µM (active) | 0.28 µM (active) | 0.693 µM (active) | 2.19 µM (inactive) | 1.44 µM (inactive) | 1.63 µM (inactive) | 0.646 µM (active) | 1.54 µM (inactive) | 1.61 µM (inactive) | 2.55 µM (inactive) | 1.39 µM (inactive) | 2.55 µM (inactive) | 0.757 µM (active) | 0.592 µM (active) | 0.631 µM | 1.63 µM (inactive) | 3.4 µM (inactive) | 20.4 µM (inactive) | 1.73 µM (inactive) |
| COc1ccc(NS(=O)(=O)c2ccc3ncn(NS(=O)(=O)c4ccc(I)cc4)c(=O)c3c2)cc1 | 64.7 µM (inactive) | > 100 µM (inactive) | > 100 µM (inactive) | > 100 µM (inactive) | > 100 µM (inactive) | > 100 µM (inactive) | 72.9 µM (inactive) | > 100 µM (inactive) | > 100 µM (inactive) | > 100 µM (inactive) | > 10 µM (inactive) | 8.89 µM (inactive) | > 100 µM (inactive) | 49.3 µM (inactive) | > 100 µM | > 100 µM (inactive) | > 100 µM (inactive) | > 100 µM (inactive) | > 100 µM (inactive) |
| O=c1c2cccnc2cc(-c2ccccc2)n1CCO | > 100 µM (inactive) | > 100 µM (inactive) | > 100 µM (inactive) | > 100 µM (inactive) | > 100 µM (inactive) | > 100 µM (inactive) | > 100 µM (inactive) | > 100 µM (inactive) | > 100 µM (inactive) | > 100 µM (inactive) | > 100 µM (inactive) | > 100 µM (inactive) | > 100 µM (inactive) | > 100 µM (inactive) | > 100 µM | > 100 µM (inactive) | 59.2 µM (inactive) | > 100 µM (inactive) | > 100 µM (inactive) |
| CC(C)=CCC/C(=C/CC/C(=C\CCc1ccoc1)C(=O)O)C(=O)O | > 100 µM (inactive) | > 100 µM (inactive) | > 100 µM (inactive) | > 100 µM (inactive) | > 100 µM (inactive) | > 100 µM (inactive) | > 10 µM (inactive) | > 100 µM (inactive) | > 100 µM (inactive) | > 100 µM (inactive) | > 100 µM (inactive) | > 100 µM (inactive) | > 100 µM (inactive) | > 100 µM (inactive) | > 100 µM | > 100 µM (inactive) | > 100 µM (inactive) | > 100 µM (inactive) | > 100 µM (inactive) |
| SC1=NC2=C(CSC/C2=C\c2ccccc2)C(c2ccccc2)N1 (configuration not stated) | 36.6 µM (inactive) | 37.5 µM (inactive) | 27.7 µM (inactive) | 47.5 µM (inactive) | 49.7 µM (inactive) | 34.2 µM (inactive) | 32.7 µM (inactive) | 34.4 µM (inactive) | 42.5 µM (inactive) | 56.4 µM (inactive) | 26.2 µM (inactive) | 41 µM (inactive) | 27.9 µM (inactive) | 15.2 µM (inactive) | 41.7 µM | 31.9 µM (inactive) | 64.6 µM (inactive) | 92.7 µM (inactive) | 32.6 µM (inactive) |
| Cn1c(Sc2ccc(-c3cccnc3)n2C)ccc1-c1cccnc1 | 1.96 µM (inactive) | 20 µM (inactive) | 0.353 µM (active) | 21.8 µM (inactive) | 20.2 µM (inactive) | 11.5 µM (inactive) | 2.13 µM (inactive) | 15.5 µM (inactive) | 20.2 µM (inactive) | 16.7 µM (inactive) | 20.4 µM (inactive) | 18 µM (inactive) | 18.5 µM (inactive) | 2.39 µM (inactive) | 16.8 µM | 16.7 µM (inactive) | 10.7 µM (inactive) | 27.7 µM (inactive) | 23.7 µM (inactive) |
| C=C(CC)C[C@@H]1C[C@]2(C(=O)OC)c3[nH]c4ccccc4c3CCN2C1=O | – | 33.9 µM (inactive) | 23 µM (inactive) | 19.5 µM (inactive) | 26.1 µM (inactive) | 16 µM (inactive) | 29.4 µM (inactive) | 16.7 µM (inactive) | 18.4 µM (inactive) | 26.2 µM (inactive) | 22 µM (inactive) | 24.4 µM (inactive) | 12.2 µM (inactive) | 23.4 µM (inactive) | 16.6 µM | 18.9 µM (inactive) | 21.6 µM (inactive) | 21 µM (inactive) | 19.5 µM (inactive) |
| CCC(C)C1NC(=O)C2CCCN2C(=O)C(CC2CO2)OC(=O)CCNC(=O)C(C)N(C)C(=O)C(C(C)C)N(C)C1=O (configuration not stated) | – | < 0.0236 µM (active) | 1.57 µM (inactive) | > 47.8 µM (inactive) | 0.54 µM (active) | 0.0601 µM (active) | < 0.024 µM (active) | 0.889 µM (active) | 21.8 µM (inactive) | 6.05 µM (inactive) | < 0.0414 µM (active) | 1.06 µM (active) | 0.0713 µM (active) | < 0.0223 µM (active) | 12.8 µM | – | – | > 100 µM (inactive) | 1.73 µM (inactive) |
| CC(C)(C)OC(=O)NCC(=O)NC1C/C(=N\O)c2sccc21 (configuration not stated) | > 100 µM (inactive) | > 100 µM (inactive) | 0.621 µM (active) | > 100 µM (inactive) | – | – | > 100 µM (inactive) | > 100 µM (inactive) | > 100 µM (inactive) | > 100 µM (inactive) | > 100 µM (inactive) | – | > 100 µM (inactive) | > 100 µM (inactive) | > 100 µM | > 100 µM (inactive) | > 100 µM (inactive) | > 100 µM (inactive) | > 100 µM (inactive) |
| Cc1ccc([S@+]([O-])c2occc2C=O)cc1 | 1.64 µM (inactive) | 14.9 µM (inactive) | 1.79 µM (inactive) | 11 µM (inactive) | 15.4 µM (inactive) | 3.95 µM (inactive) | 1.71 µM (inactive) | 5.02 µM (inactive) | 14.5 µM (inactive) | 2.43 µM (inactive) | 12 µM (inactive) | 17.2 µM (inactive) | 13.3 µM (inactive) | 1.8 µM (inactive) | 3.49 µM | 14.5 µM (inactive) | 5.38 µM (inactive) | 13.6 µM (inactive) | 7.38 µM (inactive) |
| CCCCN1C(=O)CC2[C@@H]3CCc4cc(OC(C)=O)ccc4C3CC[C@]2(C)C1=O (some centres not stated) | > 10 µM (inactive) | > 10 µM (inactive) | > 10 µM (inactive) | > 10 µM (inactive) | > 10 µM (inactive) | > 10 µM (inactive) | > 10 µM (inactive) | > 10 µM (inactive) | > 10 µM (inactive) | > 10 µM (inactive) | > 10 µM (inactive) | > 10 µM (inactive) | > 10 µM (inactive) | 9.42 µM (inactive) | > 10 µM | > 10 µM (inactive) | > 10 µM (inactive) | > 10 µM (inactive) | > 10 µM (inactive) |
